System: T. brucei microsomes (TbRM)
Assay: Post-translational import of VSG-11786 into TbRM with inhibitors (Example 4)
Assay type: biochemical, Trypanosoma brucei
Conditions: 10 μM
Description: FIGS. 7A to 7C. […] VSG-11786 mRNA was translated in rabbit reticulocyte lysate in the absence or presence of T. brucei cytosol for 1 hour at 37° C., and then cycloheximide was added to stop protein synthesis. TbRM (1 equivalent) and MAL3-101 (10 μM), MAL3-51 (10 μM), or an equal volume of DMSO was added to the samples on ice, and the mixture was incubated at 37° C. for 1.5 hours for translocation of VSG-11786 into the microsomes. Reaction mixtures were treated with proteinase K (PK) for one hour on ice. Proteolysis was terminated with PMSF. Proteins were precipitated with ammonium sulfate, pelleted by centrifugation, resuspended in SDS-PAGE sample buffer, and resolved by Tris-Tricine SDS-PAGE. Gel images were obtained with a phosphorimager and analyzed with Quantity-One software. Reaction mixtures for odd numbered lanes contained TbRM, but not proteinase K; even numbered lanes contained TbRM and proteinase K. Brackets denote lanes that were compared to obtain percentage of VSG-11786 import values. FIG. 7B is a graphical representation of data from FIG. 7A. […] In FIG. 7C, the effect of MAL3-101 on T. brucei growth.
FIGS. 8A to 8D. Effects of NFI028 and CAM741 on import of VSG-11786 into T. brucei microsomes. […] VSG-11786 mRNA was translated in rabbit reticulocyte lysate in the presence of T. brucei cytosol for one hour at 37° C., and then protein synthesis was stopped by the addition of cycloheximide. […] Reaction mixtures were treated with proteinase K (PK) on ice for one hour. Proteolysis was terminated with PMSF. Proteins were precipitated with ammonium sulfate, pelleted, resuspended in SDS-PAGE sample buffer, and resolved by Tris-Tricine SDS-PAGE. Images of radiolabeled proteins were obtained with a phosphorimager and quantitated with Quantity-One software. Samples depicted in odd numbered lanes contained TbRM, but were not treated proteinase K. Reaction mixtures shown in even numbered lanes contained TbRM and were treated with proteinase K. Brackets denote lanes that were compared to each other in order to obtain percentage of VSG-11786 import values. FIG. 8B is a graphical representation of data from FIG. 8A.
FIGS. 9A to 9D. Effects of azide, AEE788, and valinomycin on VSG-11786 import into T. brucei microsomes. […] VSG-11786 mRNA was translated in rabbit reticulocyte lysate in the presence of T. brucei cytosol for one hour at 37° C. Cycloheximide was added to stop proteins synthesis. TbRM (1 equivalent) and sodium azide (8 μM), AEE788 (8 μM), an equal volume of microsome buffer (RMB) or DMSO was added to the samples on ice, and the mixtures were incubated at 37 C for 1.5 hours. Reaction mixtures were treated with proteinase K (PK) on ice for one hour. Proteolysis was terminated with PMSF. Proteins were precipitated with ammonium sulfate, pelleted, resuspended in SDS-PAGE sample buffer, and resolved by Tris-Tricine SDS-PAGE. Images of radiolabeled proteins were obtained with a phosphorimager and quantitated with Quantity-One software. Brackets show lanes that were compared to each other in order to obtain percentage of VSG-11786 imported into TbRM. Lanes 1, 3, 5, & 7 were treated with TbRM, but not proteinase K. Lanes 2, 4, 6, & 8 were treated with TbRM and proteinase K. FIG. 9B is a graphical representation of data from FIG. 9A. […] Reaction mixtures depicted in odd lanes contained TbRM, but were not treated with proteinase K; even lanes contained TbRM and were treated with proteinase K. FIG. 9D is a graphical representation of data from panel FIG. 9C.

**Q.** Which results are given for CCCCCCN(C(=O)CCCCCN1C(=O)NC(c2ccc(-c3ccccc3)cc2)C(C(=O)OCc2ccccc2)=C1C)C(C(=O)NCCCC)c1ccc(OCC(=O)OC)c(C(=O)OC)c1 (centres unmarked) [MAL3-101]?
**A.** reduction of VSG-11786 import into TbRM compared to DMSO control (absence of T. brucei cytosol): 54%; VSG-11786 imported into TbRM (presence of T. brucei cytosol): 90%

Reference: patent US8246966B2, “Trypanosome microsome system and uses thereof” (priority 2006, dated 2012)
